Holding throughout (type): cell-based
One assay deals with HL60/RV, MDR + AML. The assay is described as follows: In vitro assays - tubulysin free drugs, CellTiter-Glo growth inhibition. The conditions noted are these: Homo sapiens, HL-60, 96 h, Table 3; lantern-made analogues >85% purity, 96 hour exposure. How it is done:
(§1) In vitro assays. Cells cultured in log-phase growth were seeded for 24 h in 96-well plates containing 150 μL RPMI 1640 supplemented with 20% FBS. Serial dilutions of antibody-drug conjugates in cell culture media were prepared at 4× working concentrations; 50 μL of each dilution was added to the 96-well plates. Following addition of ADC, cells were incubated with test articles for 4 d at 37° C. After 96 h, growth inhibition was assessed by CellTiter-Glo® (Promega, Madison, WI) and luminescence was measured on a plate reader. The IC50 value, determined in triplicate, is defined here as the concentration that results in a 50% reduction in cell growth relative to untreated controls.
(§2) In vitro assays—tubulysin free drugs. Cells were treated for 96 hours with tubulysin ether analogs (40-42) or tubulysin M (7), then assessed for viability as described in the methods.
(§3) The tubulysin ester analogs (133-137) and unsaturated ether analogs (176-179) were tested in vitro for potency relative to tubulysin M (7), following a 96 hour exposure. As shown by IC50 values (nM) of Table 2, Tubulysin esters 133-136 performed comparably to tubulysin M, with similar potencies across of the cell lines.
(§4) A series of analogues of the ethyl ether tubulysin compound TubOEt (41) were synthesized on solid phase lanterns that maintain the ethyl ether substitution, while either varying the residue at the Ile position (203-215) or the Mep position (216-221). Following cleavage from the solid phase, the analogues were obtained in >85% purity and tested without further purification. The compounds were tested in vitro for potency relative to a sample of TubOEt synthesized in parallel on a lantern (41-lantern), following a 96 hour exposure, with IC5O values expressed in nM (Table 3). While in many cases an attenuation in activity was observed relative to 41-lantern, some well-tolerated substitutions were found. […] While this stereochemical preference is not observed when Ile is replaced with O-methyl threonine (207) or O-methyl allothreonine (206), bulkier substituents led to a greater differentiation. […] Replacement of the Mep residue was generally less-well tolerated.
(In general: In ATP-based viability assays light output follows the ATP content of the culture.)

The test system of another assay is L540cy, HL. Described as above. The conditions noted are these: L540cy, 96 h, Table 3; lantern-made analogues >85% purity, 96 hour exposure. The method, then: as §1, §2, §3, §4
For another assay, the system named is HL60, AML. Described as above. To be noted: Homo sapiens, HL-60, 96 h, Table 3; lantern-made analogues >85% purity, 96 hour exposure. How it is done:
as §1, §2, §3, §4

The subject of a further assay is U266 MM. The assay is described as follows: In vitro assays - TubOEt analogues, CellTiter-Glo growth inhibition. The conditions noted are these: Homo sapiens, U-266; Table 3; lantern-made analogues >85% purity, 96 hour exposure. How it is done: as §1, §4
For the next assay, the system named is HepG2, HCC. The description is as above. The conditions noted are these: Homo sapiens, Table 3, lantern-made analogues >85% purity, 96 hour exposure. The method, then:
as §1, §4

A further assay deals with Ramos, NHL. The assay is described as above. The conditions noted are these: Homo sapiens, Table 3, lantern-made analogues >85% purity, 96 hour exposure. The method, then: as §1, §4

A value given as a limit tells only on which side of the number the result lay.

The results in this text go back to patent US11793880B2, “Conjugates of quaternized tubulysin compounds” (Seagen Inc., priority 2015, dated 2023).

Usually IC50 stands for the concentration that inhibits the measured activity by half.

For the molecule `CCO[C@H](C[C@H](C(C)C)N(C)C(=O)[C@@H](NC(=O)[C@H]1CCCCN1C)[C@H](C)CC)c1nc(C(=O)N[C@@H](Cc2ccccc2)C[C@H](C)C(=O)O)cs1` [Compound 209, (2S,4R)-4-(2-((1R,3R)-3-((2S,3R)—N,3-dimethyl-2-((R)-1-methylpiperidine-2-carboxamido)pentanamido)-1-ethoxy-4-methylpentyl)thiazole-4-carboxamido)-2-methyl-5-phenylpentanoic acid], the IC50 with HL60/RV, MDR + AML is greater than 1000 nM; in the assay on L540cy, HL it was 12 nM; in the assay on HL60, AML, 15 nM; in the assay with U266 MM, 8 nM; in the assay on HepG2, HCC it was 50 nM; with Ramos, NHL, 7 nM.
Take `CCO[C@H](C[C@H](C(C)C)N(C)C(=O)[C@H](CC1CC1)NC(=O)[C@H]1CCCCN1C)c1nc(C(=O)N[C@@H](Cc2ccccc2)C[C@H](C)C(=O)O)cs1` [Compound 212, (2S,4R)-4-(2-((1R,3R)-3-((S)-3-cyclopropyl-N-methyl-2-((R)-1-methylpiperidine-2-carboxamido)propanamido)-1-ethoxy-4-methylpentyl)thiazole-4-carboxamido)-2-methyl-5-phenylpentanoic acid]: the IC50 in the assay on HL60/RV, MDR + AML was found to be 810 nM; in the assay with L540cy, HL, 2 nM; with HL60, AML it was 8 nM; in the assay on U266 MM, 1 nM; with HepG2, HCC it was 19 nM; in the assay on Ramos, NHL, 1 nM.
Turning to `CCO[C@H](C[C@H](C(C)C)N(C)C(=O)[C@@H](NC(=O)[C@H]1CCCCN1C)[C@@H](C)OC)c1nc(C(=O)N[C@@H](Cc2ccccc2)C[C@H](C)C(=O)O)cs1` [Compound 207, (2S,4R)-4-(2-((1R,3R)-1-ethoxy-3-((2S,3R)-3-methoxy-N-methyl-2-((R)-1-methylpiperidine-2-carboxamido)butanamido)-4-methylpentyl)thiazole-4-carboxamido)-2-methyl-5-phenylpentanoic acid], the IC50 was greater than 1000 nM in the assay on HL60/RV, MDR + AML; 6 nM in the assay with L540cy, HL; 9 nM in the assay with HL60, AML; 2 nM with U266 MM; 46 nM with HepG2, HCC; 2 nM in the assay on Ramos, NHL.
With `CCO[C@H](C[C@H](C(C)C)N(C)C(=O)[C@@H](NC(=O)[C@H]1CCCCN1C)[C@H](C)OC)c1nc(C(=O)N[C@@H](Cc2ccccc2)C[C@H](C)C(=O)O)cs1` [Compound 206, (2S,4R)-4-(2-((1R,3R)-1-ethoxy-3-((2S,3S)-3-methoxy-N-methyl-2-((R)-1-methylpiperidine-2-carboxamido)butanamido)-4-methylpentyl)thiazole-4-carboxamido)-2-methyl-5-phenylpentanoic acid], the concentration for half-maximal inhibition (IC50) in the assay with HL60/RV, MDR + AML was greater than 1000 nM; in the assay with L540cy, HL, 6 nM; in the assay with HL60, AML, 16 nM; in the assay on U266 MM it was 3 nM; in the assay with HepG2, HCC, 41 nM; in the assay on Ramos, NHL it was 2 nM.
In the case of `CCO[C@H](C[C@H](C(C)C)N(C)C(=O)[C@H](CC1CCCCC1)NC(=O)[C@H]1CCCCN1C)c1nc(C(=O)N[C@@H](Cc2ccccc2)C[C@H](C)C(=O)O)cs1` [Compound 213, (2S,4R)-4-(2-((1R,3R)-3-((S)-3-cyclohexyl-N-methyl-2-((R)-1-methylpiperidine-2-carboxamido)propanamido)-1-ethoxy-4-methylpentyl)thiazole-4-carboxamido)-2-methyl-5-phenylpentanoic acid], the IC50 with HL60/RV, MDR + AML was greater than 1000 nM; in the assay with L540cy, HL, 20 nM; in the assay on HL60, AML, 42 nM; in the assay on U266 MM it was 9 nM; with HepG2, HCC, 70 nM; with Ramos, NHL it was 10 nM.
With `CCO[C@H](C[C@H](C(C)C)N(C)C(=O)[C@@H](NC(=O)[C@H]1CCCCN1C)[C@H](C)OC(C)(C)C)c1nc(C(=O)N[C@@H](Cc2ccccc2)C[C@H](C)C(=O)O)cs1` [Compound 214, (2S,4R)-4-(2-((1R,3R)-3-((2S,3S)-3-(tert-butoxy)-N-methyl-2-((R)-1-methylpiperidine-2-carboxamido)butanamido)-1-ethoxy-4-methylpentyl)thiazole-4-carboxamido)-2-methyl-5-phenylpentanoic acid], the IC50 in the assay on HL60/RV, MDR + AML is greater than 1000 nM; in the assay with L540cy, HL it was 30 nM; in the assay with HL60, AML, 190 nM; in the assay on U266 MM, 22 nM; in the assay with HepG2, HCC, 91 nM; in the assay with Ramos, NHL it was 20 nM.
With `CCO[C@H](C[C@H](C(C)C)N(C)C(=O)[C@@H](NC(=O)[C@@H](C(C)C)N(C)C)[C@@H](C)CC)c1nc(C(=O)N[C@@H](Cc2ccccc2)C[C@H](C)C(=O)O)cs1` [Compound 220, (2S,4R)-4-(2-((3R,6S,9R,11R)-6-((S)-sec-butyl)-3,9-diisopropyl-2,8-dimethyl-4,7-dioxo-12-oxa-2,5,8-triazatetradecan-11-yl)thiazole-4-carboxamido)-2-methyl-5-phenylpentanoic acid], the half-inhibitory concentration (IC50) in the assay with HL60/RV, MDR + AML was greater than 1000 nM; in the assay on L540cy, HL, 13 nM; in the assay on HL60, AML it was 299 nM; with U266 MM, 10 nM; in the assay on HepG2, HCC it was 41 nM; in the assay on Ramos, NHL, 10 nM.
Consider `CCO[C@H](C[C@H](C(C)C)N(C)C(=O)[C@@H](NC(=O)[C@H]1CCCCN1C)C(CC)CC)c1nc(C(=O)N[C@@H](Cc2ccccc2)C[C@H](C)C(=O)O)cs1` [Compound 203, (2S,4R)-4-(2-((1R,3R)-1-ethoxy-3-((S)-3-ethyl-N-methyl-2-((R)-1-methylpiperidine-2-carboxamido)pentanamido)-4-methylpentyl)thiazole-4-carboxamido)-2-methyl-5-phenylpentanoic acid], for which the half-inhibitory concentration (IC50) in the assay on HL60/RV, MDR + AML came out at 604 nM; with L540cy, HL, 1 nM; in the assay with HL60, AML it was 8 nM; in the assay on U266 MM it was 0.5 nM; with HepG2, HCC, 8 nM; in the assay with Ramos, NHL it was 0.4 nM.
On to `CCO[C@H](C[C@H](C(C)C)N(C)C(=O)C(NC(=O)[C@H]1CCCCN1C)C12CC(F)(C1)C2)c1nc(C(=O)N[C@@H](Cc2ccccc2)C[C@H](C)C(=O)O)cs1` (stereo partly drawn) [Compound 211, (2S,4R)-4-(2-((1R,3R)-1-ethoxy-3-(2-(3-fluorobicyclo[1.1.1]pentan-1-yl)-N-methyl-2-((R)-1-methylpiperidine-2-carboxamido)acetamido)-4-methylpentyl)thiazole-4-carboxamido)-2-methyl-5-phenylpentanoic acid], for which the half-inhibitory concentration (IC50) was found to be 224 nM in the assay with HL60/RV, MDR + AML; 2 nM in the assay with L540cy, HL; 5 nM with HL60, AML; 2 nM with U266 MM; 14 nM in the assay with HepG2, HCC; 1 nM with Ramos, NHL.
In the case of `CCO[C@H](C[C@H](C(C)C)N(C)C(=O)[C@@H](NC(=O)[C@H]1CCCCN1C)C1Cc2ccccc2C1)c1nc(C(=O)N[C@@H](Cc2ccccc2)C[C@H](C)C(=O)O)cs1` [Compound 208, (2S,4R)-4-(2-((1R,3R)-3-((S)-2-(2,3-dihydro-1H-inden-2-yl)-N-methyl-2-((R)-1-methylpiperidine-2-carboxamido)acetamido)-1-ethoxy-4-methylpentyl)thiazole-4-carboxamido)-2-methyl-5-phenylpentanoic acid], the concentration for half-maximal inhibition (IC50) is greater than 1000 nM with HL60/RV, MDR + AML; 58 nM in the assay on L540cy, HL; 221 nM in the assay on HL60, AML; 40 nM in the assay on U266 MM; 250 nM in the assay with HepG2, HCC; 44 nM in the assay on Ramos, NHL.
